Patent publication US9511070B2, “Heterocyclyl carboxamides for treating viral diseases” (NOVADRUG, LLC, priority 2012, dated 2016)

Tested on: JFH-1 HCV
Conditions: for HCV Antiviral Activity: viral titer at 5 μM or 15 μM compared to untreated control; for intracellular HCV RNA levels (FIGS. 1A, 1B, 1C): relative to mock-treated HCV infected control, doses in μM
Excerpt: In vitro assay for anti-HCV efficacy. HCV studies typically involve infected patients and chimpanzees. However, recently, a robust HCV infection system was developed with cells derived from the Huh-7 human hepatoma cell line. It is based on the unique JFH-1 HCV consensus cDNA derived from an HCV patient. Using reverse genetics, the infectious virus can be rescued from this HCV clone. The recovered viable JFH virus can be passaged serially in Huh-7 cells. For this reason, this system is amenable for evaluating the activity of test compound for their anti-HCV efficacy.
Briefly, 6×10^3 Huh7-1 cells are incubated overnight in each well of collagen-coated BioCoat 96-well plates (BD Biosciences, Bedford, Mass.) in 0.2 ml 10% medium composed of Dulbecco's modified Eagle's medium supplemented with 10% fetal bovine serum. Subsequently, at 2 day intervals, the cultures are replenished with fresh 0.2 ml 10% medium. After the cultures become confluent, they continue to be replenished at 2 day intervals with fresh 0.2 ml 10% medium that also includes 1% dimethyl sulfoxide (DMSO). After 20 days of these replenishments, the Huh7-1 cultures are incubated with fresh 1% medium (same as 10% medium except that the serum level is 1%) containing HCV at a multiplicity of infection (MOI) of 0.05 focus forming units (ffu)/cell. The HCV (JFH-lwt Huh7) stock titer is 1.5×10^5 ffu/mL. The next day (day 1 post-infection) and 2 days later (day 3 post-infection) the media are replenished with fresh 1% medium containing the test compounds dissolved in DMSO. On the 5th day of treatment with the compounds, cell lysates are collected for RNA isolation and Real Time-quantitative Reverse Transcription Polymerase Chain Reaction (RT-qPCR) and culture media are collected for cytotoxicity analysis.
Total RNA is isolated from cells by the guanidine thiocyanate method using standard protocols. One μg RNA is used for cDNA synthesis using TaqMan reverse transcription reagents (Applied Biosystems, Foster City, Calif.) followed by real-time PCR using an Applied Biosystems 7300 real-time thermocycler. Thermal cycling consists of initial denaturation of 10 min at 95° C. followed by 40 cycles of denaturation (15 s at 95° C.) and annealing/extension (1 m at 60° C.). HCV and human glyceraldehyde-3-phosphate dehydrogenase (GAPDH) RNA levels are determined relative to a standard curve of serial dilutions of plasmid containing JFH-1 HCV or GAPDH cDNA. The PCR primers used to detect GAPDH and HCV are: GAPDH (NMX002046) 5′-[…]-3′(SEQ ID NO: 16) (sense) and 5′-[…]-3′(SEQ ID NO: 17) (anti-sense) JFH-1 HCV (AB047639) 5′-[…]-3′(SEQ ID NO: 18) (sense) and 5′-[…]-3′(SEQ ID NO: 19) (anti-sense).

## Cc1nc(C)c(CN2CCC(C(=O)Nc3cccc(-c4cccc(F)c4)c3)CC2)nc1C [Example 79]
  HCV Antiviral Activity: ++ (“++” corresponds to ≦60% viral titer at 5 μM)

## C=CCn1cc(CN2CCC(C(=O)Nc3cccc(-c4cccc(F)c4)c3)CC2)c(C)n1 [Example 93]
  HCV Antiviral Activity: ++ (“++” corresponds to ≦60% viral titer at 5 μM)

## COc1cccc(CN2CCC(C(=O)Nc3ccc(Oc4ccccc4F)cc3)CC2)c1O [Example 61]
  HCV Antiviral Activity: ++ (“++” corresponds to ≦60% viral titer at 5 μM)

## CC(C)n1cc(CN2CCC(C(=O)Nc3cccc(-c4cc5ccccc5[nH]4)c3)CC2)cn1 [Example 38]
  HCV Antiviral Activity: + (“+” corresponds to ≦60% viral titer at 15 μM)

## CCCCc1nc(CN2CCC(C(=O)Nc3cccc(-c4cccc(F)c4)c3)CC2)c[nH]1 [Example 27]
  HCV Antiviral Activity: ++ (“++” corresponds to ≦60% viral titer at 5 μM)

## O=C(Nc1cccc(-c2cccc(F)c2)c1)C1CCN(Cc2cccc3c2OCO3)CC1 [Example 56]
  HCV Antiviral Activity: − (“−” corresponds to >60% viral titer at 15 μM (highest concentration tested))

## O=C(Nc1ccc(Oc2ccccc2)nc1)C1CCN(Cc2ccccc2)CC1 [Example 77]
  HCV Antiviral Activity: ++ (“++” corresponds to ≦60% viral titer at 5 μM)

## COc1cccc(-c2ccccc2NC(=O)C2CCN(Cc3cccc4ccccc34)CC2)c1 [Example 71]
  HCV Antiviral Activity: + (“+” corresponds to ≦60% viral titer at 15 μM)

## O=C(Nc1cccc(-c2ccco2)c1)C1CCN(C(=O)c2n[nH]c3c2CCC3)CC1 [Example 54]
  HCV Antiviral Activity: − (“−” corresponds to >60% viral titer at 15 μM (highest concentration tested))

## COc1cccc(CN2CCC(C(=O)Nc3ccc(Oc4ccccc4F)cc3)CC2)c1 [Example 70]
  HCV Antiviral Activity: + (“+” corresponds to ≦60% viral titer at 15 μM)

## O=C(Nc1cccc(-c2ccco2)c1)C1CCN(Cc2nc3ccc(F)cc3[nH]2)CC1 [Example 49]
  HCV Antiviral Activity: − (“−” corresponds to >60% viral titer at 15 μM (highest concentration tested))

## COc1cccc(-c2ccccc2NC(=O)C2CCN(Cc3cc(C)ccc3C)CC2)c1 [Example 88]
  HCV Antiviral Activity: + (“+” corresponds to ≦60% viral titer at 15 μM)

## O=C(Nc1cccc(-c2cccc(Cl)c2)c1)C1CCN(Cc2cccc(O)c2)CC1 [Example 50]
  HCV Antiviral Activity: − (“−” corresponds to >60% viral titer at 15 μM (highest concentration tested))

## COc1ccccc1/C=C/CN1CCC(C(=O)Nc2ccc(-n3nc(C)cc3C)cc2)CC1 [Example 66]
  HCV Antiviral Activity: + (“+” corresponds to ≦60% viral titer at 15 μM)

## O=C(Nc1ccc(-c2nc3ccccc3[nH]2)cc1)C1CCN(CC2CC=CCC2)CC1 (centres unmarked) [Example 92]
  HCV Antiviral Activity: + (“+” corresponds to ≦60% viral titer at 15 μM)

## COc1cccc(CN2CCC(C(=O)Nc3cccc(-c4cccc(Cl)c4)c3)CC2)c1O [Example 63]
  HCV Antiviral Activity: ++ (“++” corresponds to ≦60% viral titer at 5 μM)

## COc1cccc(-c2ccccc2NC(=O)C2CCN(Cc3ccc(F)cc3OC)CC2)c1 [Example 34]
  HCV Antiviral Activity: + (“+” corresponds to ≦60% viral titer at 15 μM)

## COc1ccc(/C=C/CN2CCC(C(=O)Nc3cccc(-c4ccco4)c3)CC2)cc1 [Example 55]
  HCV Antiviral Activity: − (“−” corresponds to >60% viral titer at 15 μM (highest concentration tested))

## O=C(Nc1cccc(-c2cccc(Cl)c2)c1)C1CCN(Cc2ccccn2)CC1 [Example 98]
  HCV Antiviral Activity: + (“+” corresponds to ≦60% viral titer at 15 μM)

## COc1cc(CN2CCC(C(=O)Nc3cccc(-c4cccc(Cl)c4)c3)CC2)ccc1O [Example 42]
  HCV Antiviral Activity: + (“+” corresponds to ≦60% viral titer at 15 μM)

## COc1cccc(-c2ccccc2NC(=O)C2CCN(Cc3ccc(OC)c(C)c3)CC2)c1 [Example 32]
  HCV Antiviral Activity: + (“+” corresponds to ≦60% viral titer at 15 μM)

## CCN1CCC(N2CCC(C(=O)Nc3ccc(Oc4ccccc4F)cc3)CC2)CC1 [Example 75]
  HCV Antiviral Activity: +++ (“+++” corresponds to ≦30% viral titer at 5 μM)

## CCCn1ncc(CN2CCC(C(=O)Nc3ccccc3-c3cccc(OC)c3)CC2)c1C [Example 80]
  HCV Antiviral Activity: + (“+” corresponds to ≦60% viral titer at 15 μM)

## O=C(Nc1cccc(-c2cccc(F)c2)c1)C1CCN(Cc2ccc3nsnc3c2)CC1 [Example 90]
  HCV Antiviral Activity: + (“+” corresponds to ≦60% viral titer at 15 μM)

## CCCn1ncc(CN2CCC(C(=O)Nc3ccc(Oc4ccccc4F)cc3)CC2)c1C [Example 73]
  HCV Antiviral Activity: + (“+” corresponds to ≦60% viral titer at 15 μM)

## COc1cccc(-c2ccccc2NC(=O)C2CCN(Cc3cccc4cccnc34)CC2)c1 [Example 22]
  intracellular HCV RNA levels (FIGS. 1A, 1B, 1C): dose dependent decrease in HCV RNA levels
  HCV Antiviral Activity: +++ (“+++” corresponds to ≦30% viral titer at 5 μM)

## COc1cccc(CN2CCC(C(=O)Nc3cccc(-c4cccc(F)c4)c3)CC2)c1O [Example 91]
  HCV Antiviral Activity: ++ (“++” corresponds to ≦60% viral titer at 5 μM)

## COc1cccc(-c2ccccc2NC(=O)C2CCN(Cc3cccc(OC)c3O)CC2)c1 [Example 62]
  HCV Antiviral Activity: ++ (“++” corresponds to ≦60% viral titer at 5 μM)

## COc1cc(CN2CCC(C(=O)Nc3ccc(-c4cccc(C)c4)cc3)CC2)ccc1O [Example 17]
  HCV Antiviral Activity: + (“+” corresponds to ≦60% viral titer at 15 μM)

## COc1cccc(O)c1CN1CCC(C(=O)Nc2cccc(-c3cccc(F)c3)c2)CC1 [Example 30]
  HCV Antiviral Activity: + (“+” corresponds to ≦60% viral titer at 15 μM)

## O=C(Nc1cccc(-c2cscn2)c1)C1CCN(C/C=C/c2ccc(F)cc2)CC1 [Example 52]
  HCV Antiviral Activity: − (“−” corresponds to >60% viral titer at 15 μM (highest concentration tested))

## O=C(Nc1cccc(-c2cccc(F)c2)c1)C1CCN(Cc2cccc(O)c2)CC1 [Example 29]
  HCV Antiviral Activity: + (“+” corresponds to ≦60% viral titer at 15 μM)

## O=C(Nc1ccc(-c2nc3ccccc3[nH]2)cc1)C1CCN(Cc2cccc(F)c2)CC1 [Example 96]
  HCV Antiviral Activity: + (“+” corresponds to ≦60% viral titer at 15 μM)

## C=CCn1cc(CN2CCC(C(=O)Nc3cccc(-c4cccc(Cl)c4)c3)CC2)c(C)n1 [Example 72]
  HCV Antiviral Activity: + (“+” corresponds to ≦60% viral titer at 15 μM)

## COc1ccccc1CN1CCC(C(=O)Nc2ccc(-c3nc4ccccc4[nH]3)cc2)CC1 [Example 23]
  HCV Antiviral Activity: +++ (“+++” corresponds to ≦30% viral titer at 5 μM)

## O=C(Nc1cccc(-c2ccco2)c1)C1CCN(Cc2cccc3cccnc23)CC1 [Example 40]
  HCV Antiviral Activity: + (“+” corresponds to ≦60% viral titer at 15 μM)

## COc1cccc(-c2ccccc2NC(=O)C2CCN(CC(C)(C)C)CC2)c1 [Example 39]
  HCV Antiviral Activity: + (“+” corresponds to ≦60% viral titer at 15 μM)

## CCn1cc(CN2CCC(C(=O)Nc3ccc(Oc4ccccc4F)cc3)CC2)cn1 [Example 97]
  HCV Antiviral Activity: ++ (“++” corresponds to ≦60% viral titer at 5 μM)

## O=C(Nc1ccc(Oc2ccccc2F)cc1)C1CCN(Cc2cccc3c2OCO3)CC1 [Example 28]
  intracellular HCV RNA levels (FIGS. 1A, 1B, 1C): dose dependent decrease in HCV RNA levels
  HCV Antiviral Activity: ++ (“++” corresponds to ≦60% viral titer at 5 μM)

## Cc1ccc(CN2CCC(C(=O)Nc3ccc(Oc4ccccc4F)cc3)CC2)o1 [Example 94]
  HCV Antiviral Activity: + (“+” corresponds to ≦60% viral titer at 15 μM)

## CCn1ncc(CN2CCC(C(=O)Nc3cccc(-c4cccc(F)c4)c3)CC2)c1C [Example 95]
  HCV Antiviral Activity: ++ (“++” corresponds to ≦60% viral titer at 5 μM)

## COc1cccc(CN2CCC(C(=O)Nc3cccc(-c4cccc(F)c4)c3)CC2)c1OC [Example 84]
  HCV Antiviral Activity: + (“+” corresponds to ≦60% viral titer at 15 μM)

## COc1cc(CN2CCC(C(=O)Nc3ccc(Oc4ccccc4F)cc3)CC2)ccc1O [Example 85]
  HCV Antiviral Activity: ++ (“++” corresponds to ≦60% viral titer at 5 μM)

## COc1cccc(-c2cccc(NC(=O)C3CCN(CC=C(C)C)CC3)c2)c1 [Example 69]
  HCV Antiviral Activity: ++ (“++” corresponds to ≦60% viral titer at 5 μM)

## COc1ccc(O)c(CN2CCC(C(=O)Nc3ccc(Oc4ccccc4F)cc3)CC2)c1 [Example 81]
  HCV Antiviral Activity: ++ (“++” corresponds to ≦60% viral titer at 5 μM)

## O=C(Nc1ccc(-c2nc3ccccc3[nH]2)cc1)C1CCN(Cc2cc3ccccc3[nH]2)CC1 [Example 47]
  HCV Antiviral Activity: − (“−” corresponds to >60% viral titer at 15 μM (highest concentration tested))

## COc1cccc(-c2ccccc2NC(=O)C2CCN(Cc3cc(C)c(O)c(C)c3)CC2)c1 [Example 24]
  intracellular HCV RNA levels (FIGS. 1A, 1B, 1C): dose dependent decrease in HCV RNA levels
  HCV Antiviral Activity: +++ (“+++” corresponds to ≦30% viral titer at 5 μM)
